Here are results for seven compounds from patent US5939428A, “Alkyl N-[3-(acridin-9-yl)amino-5-hydroxymethyl] phenylcarbamates” (National Health Research Institutes, priority 1998, dated 1999).

For data set [1], the system named is HL-60 cells. Put plainly: in vitro cytotoxicity against growth of human leukemic HL-60 cells. The data set is classed as cell-based. As to conditions: read-out: IC50 for cell growth inhibition, HL-60. The protocol: (§1) The in vitro cytotoxicity of the N-[3-(acridin-9-yl)amino-5-hydroxymethyl]phenylcarbamate derivatives of the invention against growth of human leukemic HL-60 cells and 833K tumor cells, and the chemotherapeutic effects of ethyl N-[3-(acridin-9-yl)amino-5-hydroxymethyl]phenylcarbamate on Sarcoma 180 and Lewis lung carcinoma tumor bearing B6 D2 F1 mice were evaluated. The compound 3-(acridin-9-yl)amino-5-hydroxymethylaniline (AHMA) was also evaluated for comparison.
(§2) The in vitro cytotoxicity against growth of human
(§3) leukemic HL-60 cells and 833K tumor cells.

The test system of data set [2] is 833K tumor cells. The data set is described as follows: in vitro cytotoxicity against growth of 833K tumor cells. The conditions noted are these: Homo sapiens, read-out: IC50 for cell growth inhibition, 833K. The data set is classed as cell-based. The protocol: as §1, §2, §3
For data set [3] the following is noted: mouse, in vivo; cited from earlier work.
For data set [4] the following is noted: longer than m-AMSA; cited from earlier work.
For data set [5], the system named is murine leukemia and solid tumors (a mammary adenocarcinoma, B-16 melanoma and Lewis lung carcinoma). The conditions noted are these: cited from earlier work.
The subject of data set [6] is leukemia and several solid tumors. As to conditions: against growth of leukemia and several solid tumors, in vitro and in vivo; cited from earlier work.
Data set [7] deals with Sarcoma 180. The data set is described as follows: chemotherapeutic effect on Sarcoma 180 tumor bearing B6 D2 F1 mice. It is filed as in vivo. The conditions noted are these: for Average Tumor Volume (T/C), Day 7 / Average Weight Change, Day 7: QD × 5, day 7.
Text: Sarcoma 180 (3 × 10^6 cells) innoculated subcutaneously
(s.c.) on day 0. Treatment started on day 1, peritoneal injection (i.p.),
The test system of data set [8] is Lewis lung carcinoma. The data set is described as follows: chemotherapeutic effect on Lewis lung carcinoma tumor bearing B6 D2 F1 mice. It is filed as in vivo. As to conditions: for Average Weight Change, Day 7 / Average Weight Change, Day 10: mouse, in vivo, ip. The protocol:
as §1
The chemotherapeutic effects on Sarcoma 180 and
Lewis lung carcinoma tumor bearing B6 D2 F1 mice.^a […]
carcinoma (4 × […] cells) inoculated s.c. on day (-2).
Treatment started on day 1, i.p., QD × 5. Control had 4 mice and
each dose had 3 mice. Tumor sizes were evaluated on day 7 and day 10.

For data set [9] the following is noted: 37° C.; cited from earlier work.
The conditions of data set [10]: mouse and rat; GSH conjugates; cited from earlier work.
Where [11] appears, read: Lewis lung carcinoma, 3.0 mg/kg i.p., QD × 5.
[12] abbreviates: Lewis lung carcinoma, 6.0 mg/kg i.p., QD × 5.

The IC50 is the concentration needed to halve the response being measured.

For the compound `CNC(=O)c1cccc2c(Nc3cc(N)cc(CO)c3)c3cccc(C)c3nc12` [compound 4, 3-(5-methyl-4-methylamino-carbonylacridin-9-yl)amino-5-hydroxymethylaniline], the IC50 in data set [1] turned out to be 144 nM; in [2], 244 nM.

On to `CCOC(=O)Nc1cc(CO)cc(Nc2c3cccc(C)c3nc3c(C(=O)NC)cccc23)c1` [compound 5, ethyl N-[3-(4-methylaminocarbonyl-5-methylacridin-9-yl)amino-5-hydroxymethyl]phenylcarbamate], for which the IC50 in data set [1] is 83 nM; in data set [2], 34 nM.

On to `CNC(=O)c1cccc2c(Nc3ccc(NS(C)(=O)=O)cc3OC)c3cccc(C)c3nc12` [CI-921], for which the “metabolites detected in addition to the 5'- and 6'-GSH conjugates” value in data set [3] was “two other metabolites, namely C9-GSH and the 4-hydroxymethyl derivatives of CI-921, were detected”.

As for `Nc1cc(CO)cc(Nc2c3ccccc3nc3ccccc23)c1` [compound 1, 3-(acridin-9-yl)amino-5-hydroxymethylaniline], the IC50 in data set [1] turned out to be 25 nM. In addition, the plasma half-life in data set [4] was 1.5 h. Also, in data set [5] (mouse, in vivo), the “toxicity toward the host compared with m-AMSA and VP-16” value is “less toxic toward the host”. Also, in data set [5] (murine leukemia and solid tumors), the “antitumor efficacy compared with m-AMSA and VP-16” value is “greater efficacy against murine leukemia and solid tumors (a mammary adenocarcinoma, B-16 melanoma and Lewis lung carcinoma) than m-AMSA and VP-16”. The antitumor activity entry in [6] is “potent antitumor activity against growth of leukemia and several solid tumors both in vitro and in vivo with long half-life”.

As for `CCOC(=O)Nc1cc(CO)cc(Nc2c3ccccc3nc3ccccc23)c1` [compound 2, ethyl N-[3-(acridin-9-yl)amino-5-hydroxymethyl]phenylcarbamate], the figures for the IC50 in data set [1] and in data set [2] were 16 nM and 20 nM, respectively. Besides, the “Average Tumor Volume (T/C), Day 7” value in data set [7] (3.0 mg/kg i.p.) stood at 1.24; in data set [7] (5.0 mg/kg i.p.), 0.06; in data set [7] (7.0 mg/kg i.p.), 0.22; in data set [8] (setting [11]) it was 0.8; in [8] (setting [12]) it was 0.44; in data set [8] (Lewis lung carcinoma, 8.0 mg/kg i.p., QD × 5), 0.21. The “Average Weight Change, Day 7” value in data set [7] (3.0 mg/kg i.p.) is on record as -2.0 gm; in [7] (5.0 mg/kg i.p.), -2.6 gm; in [7] (7.0 mg/kg i.p.), -3.4 gm; in data set [8] (3 mg/kg), -2.3 gm; in data set [8] (6 mg/kg), -3 gm; in [8] (8 mg/kg) it was -3.6 gm. Further, the “Average Tumor Volume (T/C), Day 10” value in [7] (3.0 mg/kg i.p., QD × 5, day 10) is on record as 1.21; in data set [7] (5.0 mg/kg i.p., QD × 5, day 10), 0.63; in data set [7] (7.0 mg/kg i.p., QD × 5, day 10), less than 0.01; in data set [8] (setting [11]) it was 0.63; in data set [8] (setting [12]), 0.37. The “Average Weight Change, Day 10” value is recorded as -0.7 gm in data set [7] (3.0 mg/kg i.p., QD × 5, day 10); “+1.0 gm” in [7] (5.0 mg/kg i.p., QD × 5, day 10); -0.1 gm in [7] (7.0 mg/kg i.p., QD × 5, day 10); -1.3 gm in data set [8] (3 mg/kg); -2.6 gm in data set [8] (6 mg/kg). The “Tumor detectability (footnote b)” value in data set [7] (7.0 mg/kg i.p., QD × 5, day 10) is given as “Tumor not detectable”. The “Mortality (footnote c)” value in data set [8] (Lewis lung carcinoma, 8.0 mg/kg i.p., QD × 5, 3 mice) was “One mouse died on day 8 and two mice died on day 9”.

On to `CC(C)COC(=O)Nc1cc(CO)cc(Nc2c3ccccc3nc3ccccc23)c1` [compound 3, i-butyl N-[3-(acridin-9-yl)amino-5-hydroxymethyl]phenylcarbamate], for which the results for the IC50 in data set [1] and in data set [2] were 18 nM and 21 nM, respectively.

As for `COc1cc(NS(C)(=O)=O)ccc1Nc1c2ccccc2nc2ccccc12` [m-AMSA, 4'-(9-acridinylamino)methanesulfon-m-anisidine], the “half-life in the presence of fresh mouse blood” value in data set [9] is reported as “ca. 30 min”. Moreover, the major biliary metabolites result in data set [10] was “the major biliary metabolites of this agent were the 5'- and 6'-glutathione (GSH) conjugates, with no C9-GSH conjugate being found”. In addition, the “dose excreted as the glutathione conjugate in the bile” value in data set [3] was “More than 50%”.
